Our source for the inhibition values is patent publication US11236105B2, “Bicyclic compounds and methods of use” (BioTheryX, Inc., priority 2017, dated 2022).

Broadly, the inhibition is the percentage by which the read-out fell short of the control.

For this experiment, the system named is TNF-α. Kind of experiment: Cell-Based TNFα Inhibition Assay (PBMCs induced with LPS, Meso Scale). Conditions: PBMC, PBMCs pretreated 1 hr, induced with LPS 100 ng/mL 18-24 hrs, supernatant TNF-α; for inhibition at 0.1 µM: 0.1 μM compound; for inhibition at 1 µM: 1 μM compound. The procedure:
Cell-Based TNFα Inhibition Assay
PBMCs induced with LPS (lipopolysaccharide): Frozen […] blood mononuclear cells (PBMCs) are purchased from AllCells. Cells are quick thawed, washed once with Roswell Park Memorial Institute medium (RPMI)-1640/10% FBS/1% Penicillin/1% Streptomycin and plated in 96 well plates at 200,000 cells per well. Cells are pretreated with DMSO only or the indicated compounds for 1 hr and then induced with […] for 18-24 hrs. The supernatant is analyzed for TNF-α using Meso Scale assay according to manufacturer's protocol. The negative control wells are treated with DMSO. Compound activity is measured as a percentage of the DMSO control.

Where only a bound is given, the exact number is not on record here.

As to `CCOc1cc([C@@H](CS(C)(=O)=O)N2C(=O)c3csc(NC(=O)COC)c3C2=O)ccc1OC` [Compound 3, (S)—N-(5-(1-(3-ethoxy-4-methoxyphenyl)-2-(methylsulfonyl)ethyl)-4,6-dioxo-5,6-dihydro-4H-thieno[3,4-c]pyrrol-1-yl)-2-methoxyacetamide], the inhibition at 0.1 µM was 40 to 60% and the inhibition at 1 µM was more than 60%.

In the case of `CCOc1cc([C@@H](CS(C)(=O)=O)N2C(=O)c3csc(NC(=O)C4CC4)c3C2=O)ccc1OC` [Compound 8, (S)—N-(5-(1-(3-ethoxy-4-methoxyphenyl)-2-(methylsulfonyl)ethyl)-4,6-dioxo-5,6-dihydro-4H-thieno[3,4-c]pyrrol-1-yl)cyclopropanecarboxamide], the inhibition at 0.1 µM is less than 20% and the inhibition at 1 µM is more than 60%.

Turning to `CC(=O)Nc1csc2c1C(=O)N([C@H](CS(C)(=O)=O)c1ccc3c(c1)OCO3)C2=O` [Compound 23, N-(5-(1-(benzo[d][1,3]dioxol-5-yl)-2-(methylsulfonyl)ethyl)-4,6-dioxo-5,6-dihydro-4H-thieno[2,3-c]pyrrol-3-yl)acetamide], the inhibition at 0.1 µM lay in the range of 20 to 40% and the inhibition at 1 µM is 40 to 60%.

For the molecule `CCOc1cc([C@@H](CS(C)(=O)=O)N2C(=O)c3csc(NC(=O)C(CC)CC)c3C2=O)ccc1OC` [Compound 6], the inhibition at 0.1 µM lay in the range of 40 to 60% and the inhibition at 1 µM was more than 60%.

With `CCOc1cc([C@@H](CS(C)(=O)=O)N2C(=O)c3csc(N(C(=O)C4CC4)C(=O)C4CC4)c3C2=O)ccc1OC` [Compound 4], the inhibition at 0.1 µM was less than 20% and the inhibition at 1 µM is 40 to 60%.

As for `CCOc1cc([C@@H](CS(=O)(=O)N(C)C)N2C(=O)c3csc(NC(C)=O)c3C2=O)ccc1OC` [Compound 15, (S)—N-(5-(2-(N,N-dimethylsulfamoyl)-1-(3-ethoxy-4-methoxyphenyl)ethyl)-4,6-dioxo-5,6-dihydro-4H-thieno[3,4-c]pyrrol-1-yl)acetamide], the inhibition at 0.1 µM was less than 20% and the inhibition at 1 µM was less than 20%.
